Measurements: patent US20250213707A1, “COMPOUND FOR INCREASING EFFICACY OF ONCOLYTIC VIRUSES” (ABLEVIA BIOTECH GMBH, priority 2022, published 2025)

What was measured:
[1] = test system: polyclonal antibody ab6982; experiment: Epitope mapping of polyclonal antibody ab6982 against cyclic peptides of Ad5 fiber and hexon (peptide array); format: binding, rabbits
Text: Polyclonal antibody ab6982 (Abcam) was generated by immunizing rabbits with purified AdV. It reacts with all capsid proteins of Ad5 including hexon, fiber and penton. It was shown that the antibody neutralizes Ad5 infection in a bioassay at 1000 adenovirus 5 particles/ml, a 50% inactivation of the adenovirus can be achieved at a 1/25,000 dilution of the antibody. In order to identify epitopic regions that could contain peptides for ab6982 paratope binding, the antibody was mapped against the sequences of fiber (NCBI Reference Sequence: AP 000226.1) and hexon protein (GenBank: BAG48782.1). […] The binding signal of this antibody to the array yielded several peptides that were aligned and clustered against the sequence of the protein. The peptide clusters were named cluster1-7 (fiber protein) and clusters8-16 (hexon protein) according to their ranked order of cyclic peptide hits (i.e. cluster contains the strongest binders, cluster2 the second strongest etc.). Below are the aligments of the corresponding peptides that bind to polyclonal antibody ab6982.

[2] = test system: IgG from human donors (anti-AAV antibodies); experiment: Screen for anti-AAV antibodies in human sera, 2452 linear 15-amino-acid AAV peptides on microarrays (Table 1); format: binding; set-up: key to group I: X: the deduplicated aggregate of the respective top 10 peptide hits for each donor was compiled and designated as group I; key to group II: X: the deduplicated aggregate of the respective top 25 peptide hits for each donor was compiled and designated as group II; key to group III: X: the deduplicated aggregate of the respective top 50 peptide hits for each donor was compiled and designated as group III; conditions: for group I: membership in deduplicated aggregate of top 10 peptide hits for each donor; for group II: membership in deduplicated aggregate of top 25 peptide hits for each donor
Method in brief: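 Protein G-purified IgG from human donor blood incubated with microarrays of 2452 linear 15-mer peptides from 16 AAVs; binding read by fluorescence. Background-subtracted signals ranked per donor, with top 10, 25, 50 and 250 hits pooled and deduplicated into groups I-IV.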

[3] = cyclic peptides of fiber protein (clusters 1-7)
[4] = cyclic peptides of hexon protein (clusters 8-16)
[5] = human donor IgG binding to linear 15-amino-acid AAV peptides on microarray, fluorescence
[6] = membership in deduplicated aggregate of top 50 peptide hits for each donor, human donor IgG binding to linear 15-amino-acid AAV peptides on microarray, fluorescence
[7] = X = peptide belongs to the deduplicated aggregate of the top 50 peptide hits for each donor, linear 15-amino-acid AAV peptides, IgG binding by fluorescence
[8] = X = peptide in the deduplicated aggregate of the top 50 peptide hits for each donor (top 17.5% of all peptides screened), linear 15-amino-acid AAV peptides on microarrays, human donor IgG, fluorescence

## 201 (HNYINEIFATSSY) [compound 201]
[1]; [3]
  antibody binding signal ranking from the microarray experiment: 099

## 247 (DDDNEDE) [compound 247]
[1]; [4]
  antibody binding signal ranking from the microarray experiment: 096

## 218 (LEINLEEEDDDNE) [compound 218]
[1]; [4]
  antibody binding signal ranking from the microarray experiment: 13

## 250 (EDDDNEDEVD) [compound 250]
[1]; [4]
  antibody binding signal ranking from the microarray experiment: 121

## 288 (DRMYSFFRNF) [compound 288]
[1]; [4]
  antibody binding signal ranking from the microarray experiment: 072

## 205 (YINEIFA) [compound 205]
[1]; [3]
  antibody binding signal ranking from the microarray experiment: 168

## 198 (EIFATSSYTF) [compound 198]
[1]; [3]
  antibody binding signal ranking from the microarray experiment: 089

## 267 (KVVLYSEDVDIET) [compound 267]
[1]; [4]
  antibody binding signal ranking from the microarray experiment: 044

## 244 (NLEEEDD) [compound 244]
[1]; [4]
  antibody binding signal ranking from the microarray experiment: 065

## 271 (DVDIETPDTHISY) [compound 271]
[1]; [4]
  antibody binding signal ranking from the microarray experiment: 048

## 286 (ETPDTHISYM) [compound 286]
[1]; [4]
  antibody binding signal ranking from the microarray experiment: 071

## 196 (SYTFSYI) [compound 196]
[1]; [3]
  antibody binding signal ranking from the microarray experiment: 064

## 270 (VLYSEDVDIE) [compound 270]
[1]; [4]
  antibody binding signal ranking from the microarray experiment: 047

## 200 (ATSSYTFSYI) [compound 200]
[1]; [3]
  antibody binding signal ranking from the microarray experiment: 097

## 297 (YKDRMYSFFR) [compound 297]
[1]; [4]
  antibody binding signal ranking from the microarray experiment: 160

## 278 (EDVDIETPDTHIS) [compound 278]
[1]; [4]
  antibody binding signal ranking from the microarray experiment: 056

## 204 (NYINEIFATSSYT) [compound 204]
[1]; [3]
  antibody binding signal ranking from the microarray experiment: 119

## 260 (ALEINLE) [compound 260]
[1]; [4]
  antibody binding signal ranking from the microarray experiment: 033

## 276 (DVDIETPDTH) [compound 276]
[1]; [4]
  antibody binding signal ranking from the microarray experiment: 054

## 192 (NSFLDPEYWN) [compound 192]
[1]; [3]
  antibody binding signal ranking from the microarray experiment: 187

## 299 (GDRTRYF) [compound 299]
[1]; [4]
  antibody binding signal ranking from the microarray experiment: 080

## 221 (ATALEINLEE) [compound 221]
[1]; [4]
  antibody binding signal ranking from the microarray experiment: 19

## 272 (VVLYSEDVDIETP) [compound 272]
[1]; [4]
  antibody binding signal ranking from the microarray experiment: 049

## 197 (ATSSYTF) [compound 197]
[1]; [3]
  antibody binding signal ranking from the microarray experiment: 080

## 231 (EDEVDEQAEQ) [compound 231]
[1]; [4]
  antibody binding signal ranking from the microarray experiment: 22

## 248 (EEEDDDNEDE) [compound 248]
[1]; [4]
  antibody binding signal ranking from the microarray experiment: 097

## 311 (QMLANYNIGYQGF) [compound 311]
[1]; [4]
  antibody binding signal ranking from the microarray experiment: 190

## 274 (ETPDTHI) [compound 274]
[1]; [4]
  antibody binding signal ranking from the microarray experiment: 051

## 230 (EDEVDEQAEQQKT) [compound 230]
[1]; [4]
  antibody binding signal ranking from the microarray experiment: 21

## 224 (DEVDEQA) [compound 224]
[1]; [4]
  antibody binding signal ranking from the microarray experiment: 10

## 254 (EEEDDDNEDEVDE) [compound 254]
[1]; [4]
  antibody binding signal ranking from the microarray experiment: 188

## 233 (NEDEVDEQAEQQK) [compound 233]
[1]; [4]
  antibody binding signal ranking from the microarray experiment: 25

## 269 (VDIETPDTHI) [compound 269]
[1]; [4]
  antibody binding signal ranking from the microarray experiment: 046

## 256 (DNEDEVDEQAEQQ) [compound 256]
[1]; [4]
  antibody binding signal ranking from the microarray experiment: 031

## 275 (VLYSEDVDIETPD) [compound 275]
[1]; [4]
  antibody binding signal ranking from the microarray experiment: 052

## 225 (EDDDNEDEVDEQA) [compound 225]
[1]; [4]
  antibody binding signal ranking from the microarray experiment: 12

## 306 (ANYNIGYQGF) [compound 306]
[1]; [4]
  antibody binding signal ranking from the microarray experiment: 122

## 263 (EWDEAATALEINL) [compound 263]
[1]; [4]
  antibody binding signal ranking from the microarray experiment: 112

## 207 (EIFATSSYTFSYI) [compound 207]
[1]; [3]
  antibody binding signal ranking from the microarray experiment: 200

## 255 (EVDEQAEQQK) [compound 255]
[1]; [4]
  antibody binding signal ranking from the microarray experiment: 030

## 187 (VLLNNSFLDPEYW) [compound 187]
[1]; [3]
  antibody binding signal ranking from the microarray experiment: 088

## 265 (LYSEDVDIET) [compound 265]
[1]; [4]
  antibody binding signal ranking from the microarray experiment: 039

## 304 (SYKDRMYSFFRNF) [compound 304]
[1]; [4]
  antibody binding signal ranking from the microarray experiment: 099

## 241 (LEEEDDDNEDEVD) [compound 241]
[1]; [4]
  antibody binding signal ranking from the microarray experiment: 053

## 183 (NNSFLDPEYWNFR) [compound 183]
[1]; [3]
  antibody binding signal ranking from the microarray experiment: 034

## 210 (EAATALEINLEEE) [compound 210]
[1]; [4]
  antibody binding signal ranking from the microarray experiment: 03

## 177 (FSWDWSG) [compound 177]
[1]; [3]
  antibody binding signal ranking from the microarray experiment: 186

## 178 (SWDWSGH) [compound 178]
[1]; [3]
  antibody binding signal ranking from the microarray experiment: 193

## 208 (ALEINLEEEDDDN) [compound 208]
[1]; [4]
  antibody binding signal ranking from the microarray experiment: 01

## 240 (DDDNEDEVDEQAE) [compound 240]
[1]; [4]
  antibody binding signal ranking from the microarray experiment: 037

## 273 (SEDVDIETPDTHI) [compound 273]
[1]; [4]
  antibody binding signal ranking from the microarray experiment: 050

## 209 (ATALEINLEEEDD) [compound 209]
[1]; [4]
  antibody binding signal ranking from the microarray experiment: 02

## DSESVPDPQPIGEP (REGION 1..14: note = peptide derived from viral capsid protein) [SEQ ID NO: 1942]
[2]; [5]
  group I: X
  group II: X
[2]; [6]
  group III: X

## TESVPDPQPIGEPP (REGION 1..14: note = peptide derived from viral capsid protein) [SEQ ID NO: 1929]
[2]; [5]
  group I: X
  group II: X
[2]; [6]
  group III: X

## 380 (SSYAHSQSLDRLMNP; REGION 1..15: note = peptide derived from viral capsid protein) [compound 380]
[2]; [7]
  group III: X

## 476 (PSTSSDAEAGPSGSQ; REGION 1..15: note = peptide derived from viral capsid protein) [compound 476]
[2]; [8]
  group III: X

## 470 (ANNLTSTVQVFTDDD; REGION 1..15: note = peptide derived from viral capsid protein) [compound 470]
[2]; [8]
  group III: X

## ESVPDPQPIGEPPA [SEQ ID NO: 1947]
[2]; [5]
  group I: X
  group II: X
[2]; [6]
  group III: X

## TAPGKKRPVDQSPQ (REGION 1..14: note = peptide derived from viral capsid protein) [SEQ ID NO: 1923]
[2]; [5]
  group I: X
  group II: X
[2]; [6]
  group III: X

## 362 (AHQGCLPPFPADVFM; REGION 1..15: note = peptide derived from viral capsid protein) [compound 362]
[2]; [7]
  group III: X

## 475 (AGPPKPKPNQQHQDQ; REGION 1..15: note = peptide derived from viral capsid protein) [compound 475]
[2]; [8]
  group III: X

## 425 (ELQKENSKRWNPEIQ; REGION 1..15: note = peptide derived from viral capsid protein) [compound 425]
[2]; [8]
  group III: X

## 483 (TMSAGGGGPLGDNNQ; REGION 1..15: note = peptide derived from viral capsid protein) [compound 483]
[2]; [8]
  group III: X

## 410 (ENVPFHSSYAHSQSL; REGION 1..15: note = peptide derived from viral capsid protein) [compound 410]
[2]; [8]
  group III: X

## KGEPVNAADAAALE (REGION 1..14: note = peptide derived from viral capsid protein) [SEQ ID NO: 1952]
[2]; [5]
  group I: ×
  group II: X
[2]; [6]
  group III: X

## TGDSESVPDPQPIG [SEQ ID NO: 1967]
[2]; [5]
  group I: X
  group II: X
[2]; [6]
  group III: X

## 301 (STTLSQNNNSNFAWT; REGION 1..15: note = peptide derived from viral capsid protein) [compound 301]
[2]; [7]
  group III: ×

## 325 (DNNEGADGVGNSSGN; REGION 1..15: note = peptide derived from viral capsid protein) [compound 325]
[2]; [7]
  group III: X

## 434 (TNPVATEEYGIVADN; REGION 1..15: note = peptide derived from viral capsid protein) [compound 434]
[2]; [8]
  group III: X

## 323 (RPVEHSPVEPDSSSG; REGION 1..15: note = peptide derived from viral capsid protein) [compound 323]
[2]; [7]
  group III: X

## NAADAAALEHDKAY [SEQ ID NO: 1956]
[2]; [5]
  group I: X
  group II: X
[2]; [6]
  group III: X
